From patent US11191773B2, “Methods of treatment for bacterial infections” (President and Fellows of Harvard College, priority 2017, dated 2021)
Read-outs that look alike come from different tables or passages of the source. Bridge positions count the residues as written; N and C are the ends. Square brackets hold non-standard residues; d marks the D form. Peptide text beside a SMILES is read from it. * marks the point of attachment. Ileψ(thiazoline)Cys = CC[C@H](C)[C@H](N)C1=N[C@H](C(=O)*)CS1; dOrn = NCCC[C@@H](N)C(=O)O

Tests used:
lptB1(R144H) = test: Disk diffusion assay; format: cell-based, E. coli; conditions: for Zone of inhibition, diameter of the zone of total growth inhibition: 6-mm disks, bacitracin 10IU, erythromycin 15 μg, novobiocin 30 μg, rifampin 5 μg, nalidixic acid 5 μg
Experimental: (§1) Zones of inhibition were measured in disk diffusion assays of wild type, IptB1, and suppressors IptB1(R144H) and IptB1(G33C) pictured in FIG. 6B. Assays were conducted with 6-mm disks. Numbers outside of parentheses report the diameter of the zone of total growth inhibition (in mm), while numbers inside parenthesis report the diameter of the zone of partial growth inhibition.
(§2) Disk diffusion assays were performed as described in Sherman et al., Proc. Natl. Acad. Sci. USA 2014, 111, 4982-4987. Premade Sensi-Disc (BD-Beckton, Dickinson and Company) were used for bacitracin 10IU, erythromycin 15 μg, novobiocin 30 μg, and rifampin 5 μg.

lptB1 = test: Disk diffusion assay; format: cell-based, E. coli; conditions: for zone of inhibition at 5 µg/disc / zone of inhibition at 15 µg/disc: Escherichia coli; for Zone of inhibition, diameter of the zone of total growth inhibition: 6-mm disks, bacitracin 10IU, erythromycin 15 μg, novobiocin 30 μg, rifampin 5 μg, nalidixic acid 5 μg
Experimental: as §1, §2

wild type = test: Disk diffusion assay; format: cell-based, E. coli; conditions: 6-mm disks, bacitracin 10IU, erythromycin 15 μg, novobiocin 30 μg, rifampin 5 μg, nalidixic acid 5 μg
Experimental: as §1, §2

lptB1(G33C) = test: Disk diffusion assay; format: cell-based, E. coli
Experimental: as §1, §2

IptFG(ch) mutant = test: Rescue of growth of coupling helix mutant (plating and disk assays); format: cell-based, E. coli; conditions: disks on LB plates, each disk 5 μg compound (FIG. 15)
Experimental: FIG. 8B is a series of pictures of bacterial overnight cultures grown in minimal medium. The cultures were serially diluted ten-fold and spotted onto LB agar plates with and without compounds.
FIG. 15 is a picture of bacterial lawns grown on plates in the presence of disks containing antibiotics. […] Strains were grown overnight in minimal media and then plated on LB plates. Each disk contained 5 μg compound.
The coupling helices in LptFG each contain a strictly-conserved glutamate, and changing both glutamates to alanine (IptFG(ch)) causes a lethal loss of function (FIG. 8B, LB panel). […] Because novobiocin also contacts R91 (FIG. 7C), we speculated that it might rescue growth of IptFG(ch) by masking the charge. […] We conclude that novobiocin suppresses Lpt defects in vivo by interacting with LptB at R91; therefore, novobiocin interacts with LptB in cells in a similar manner to that observed in the crystal structure.
as §2
Efficiency of plating assays were performed on indicated media using the method described in Butler et al., J. Bacteriol. 2013, 195, 4639-4649.

[1] = tested on: E. coli strain ATCC 25922; test: Neutropenic mouse thigh infection efficacy; format: in vivo; conditions: for Average log10 CFU/g of thigh: neutropenic CD-1 mice, 26 hours post infection
Experimental: Female CD-1 mice from Charles River Laboratories were allowed to acclimate for 5 days prior to start of study. Animals were housed four per cage with free access to food and water. Mice received two doses of cyclophosphamide on days −4 and −1 with 150 mg/kg and 100 mg/kg delivered IP, respectively. All procedures were performed to NeoSome IACUC policies and guidelines as well as OLAW standards.
E. coli strain ATCC 25922 was prepared for infection from an overnight plate culture. A portion of the plate was resuspended in sterile saline and adjusted to an OD of 0.15 at 625 nm. The adjusted bacterial suspension was further diluted to target an infecting inoculum of 1.5×10^5 CFU/mouse, the actual inoculum size for E. coli was 1.45×10^5 CFU/mouse. Plate counts of the inoculum was performed to confirm inoculum concentration.
Mice were inoculated with 100 μL of the prepared bacterial suspension via intramuscular injection into the right rear thigh.
Beginning at two hours post infection, mice were dosed with test agents subcutaneously at 10 mL/kg. A second dose of test agents was delivered at 6 hours post infection. For co-administered therapy, test agents were delivered separately at two different injection sites. Four animals were dosed per group. One group of four mice were euthanized at initiation of therapy (T=2 h) and CFUs determined. All remaining mice were euthanized at 26 hours post infection. At termination, thighs were aseptically excised, weighed, and homogenized to a uniform consistency in 2 mL of sterile saline. The homogenate was serially diluted and plated on bacterial growth media. The CFUs were enumerated after overnight incubation. The average and standard deviations for each group were determined.
Neutropenic mice infected with E. coli were treated with novobiocin, polymyxin B, or a combination of the two for the evaluation of efficacy is a thigh infection model.

Pseudomonas aeruginosa = test: Minimal inhibitory concentrations, checkerboard microdilution; format: cell-based; conditions: grown at 37° C. for 24 h
Experimental: (§3) Checkerboard microdilution assays between polymyxin B and novobiocin were performed in wild-type strains (unless otherwise noted) grown at 37° C. for 24 h. Checkerboard data (FIG. 1A-1F) are representative of at least three biological replicates. The following strains were tested: A) Wild-type Escherichia coli, ATCC 25922; B) Wild-type Enterobacter cloacae; ATCC 13047) Wild-type Klebsiella pneumoniae, ATCC 700721; D) Wild-type Pseudomonas aeruginosa, ATCC 15692 (PAO1); E) Wild-type Acinetobacter baumannii, ATCC 19606; F) novobiocin-resistant Acinetobacter baumannii, ATCC 19606 gyrB(R150C).

Escherichia coli = test: as above; format: cell-based; conditions: grown at 37° C. for 24 h
Experimental: as §3

Klebsiella pneumoniae = test: as above; format: cell-based; conditions: grown at 37° C. for 24 h
Experimental: as §3

[2] = tested on: Acinetobacter baumannii Novo^R; test: as above; format: cell-based; conditions: grown at 37° C. for 24 h
Experimental: as §3

LptB = target: T1, LptB (Escherichia coli, UniProt P0A9V1); test: Fbn-LptB binding assay (19F NMR linewidth); design: species or system E. coli
T1 construct: LptB-His (full-length LptB with a C-terminal His8 tag); His8 (C); made in house; host or cells: E. coli KRX (Promega)
Experimental: FIG. 12 is a graph showing the ^19F NMR linewidth of fluorobiocin (fbn) plotted vs. log[LptB]. Data were analyzed with GraphPad Prism 7 software using a nonlinear fit, log(agonist) vs. response with an R^2=0.9909.
We soaked novobiocin into LptB-ADP crystals and obtained a 2.0-Å structure of a co-complex (FIG. 7A, FIG. 11). ADP is still present in the co-complex, and novobiocin binds adjacent to the groove in LptB that accommodates the coupling helices from LptFG (FIG. 7B, FIG. 11). Coupling helices are a conserved motif in ABC systems that connect the transmembrane domains (here, LptFG) to the nucleotide-binding domains (here, LptB). […] This residue is invariant in LptB, and non-conservative substitutions at this position are lethal because they disrupt proper formation of the LptB2FG complex. Novobiocin thus binds a critical position at the LptBLptFG interface. To estimate the affinity of novobiocin for LptB, we synthesized an otherwise identical analogue in which a phenolic hydroxyl was substituted with a 19F-label (fluorobiocin, FIG. 8A).
5 mL of the buffered Fbn ligand solution was prepared by mixing 200 μL of 25X TBS pH 8.0, 125 μL 200 mM ADP pH 7.0, 125 μL 200 mM MgCl2, 4.43 μL of 56.5 mM Fbn, 4.55 mL of D20. Final [Tris-Cl]=50 mM, [NaCl]=150 mM, [ADP]=5 mM, [MgCl2]=5 mM, [Fbn]=50 μM. […]

[3] = Escherichia coli, read-out: Zone of inhibition, diameter of the zone of partial growth inhibition (in parentheses)
[4] = Escherichia coli, read-out: Zone of inhibition, diameter of the zone of total growth inhibition
[5] = read-out: Zone of inhibition, diameter of the zone of partial growth inhibition (in parentheses)
[6] = read-out: Zone of inhibition, diameter of the zone of total growth inhibition
[7] = 6-mm disks, bacitracin 10IU, erythromycin 15 μg, novobiocin 30 μg, rifampin 5 μg, nalidixic acid 5 μg
[8] = PMB 0.03 mg/kg (total 0.06) BID/SC
[9] = PMB 0.1 mg/kg (total 0.2) BID/SC
[10] = PMB 0.3 mg/kg (total 0.6) BID/SC

T1 sequence (P0A9V1 whole entry): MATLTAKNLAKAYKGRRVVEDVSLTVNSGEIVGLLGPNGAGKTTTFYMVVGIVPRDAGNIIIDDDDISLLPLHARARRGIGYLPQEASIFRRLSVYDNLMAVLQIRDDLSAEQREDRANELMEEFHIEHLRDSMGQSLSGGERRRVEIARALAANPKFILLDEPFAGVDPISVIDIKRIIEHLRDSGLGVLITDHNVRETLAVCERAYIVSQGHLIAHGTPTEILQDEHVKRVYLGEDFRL

CCn1cc(C(=O)O)c(=O)c2ccc(C)nc21 [Nalidixic acid]
zone of inhibition at 5 µg/disc (lptB1(R144H); [3]): 20 mm
zone of inhibition at 5 µg/disc (lptB1(R144H); [4]): 17 mm
zone of inhibition at 5 µg/disc (lptB1; [5]): 21 mm
zone of inhibition at 5 µg/disc (lptB1; [6]): 18 mm
zone of inhibition at 5 µg/disc (wild type; [3]): 14 mm
zone of inhibition at 5 µg/disc (wild type; [4]): 11 mm
zone of inhibition at 5 µg/disc (lptB1(G33C); [3]): 14 mm
zone of inhibition at 5 µg/disc (lptB1(G33C); [4]): 12 mm
suppression of lethality of IptFG(ch) (IptFG(ch) mutant): but not nalidixic acid (NA), suppressed the lethality of IptFG(ch)

CC[C@H](C)[C@H](N)C1=N[C@H](C(=O)N[C@@H](CC(C)C)C(=O)N[C@H](CCC(=O)O)C(=O)N[C@H](C(=O)N[C@H]2CCCCNC(=O)[C@H](CC(N)=O)NC(=O)[C@@H](CC(=O)O)NC(=O)[C@H](Cc3cnc[nH]3)NC(=O)[C@@H](Cc3ccccc3)NC(=O)[C@H]([C@@H](C)CC)NC(=O)[C@@H](CCCN)NC2=O)[C@@H](C)CC)CS1 [Bacitracin] ({Ileψ(thiazoline)Cys}-L[dE]IK[dOrn]I[dF]H[dD]N; lactam 4-C)
Zone of inhibition, diameter of the zone of total growth inhibition (lptB1(R144H)): 17 mm
Zone of inhibition, diameter of the zone of total growth inhibition (lptB1): 17 mm
Zone of inhibition, diameter of the zone of total growth inhibition (wild type): <6 mm
Zone of inhibition, diameter of the zone of partial growth inhibition (in parentheses) (lptB1(G33C); [7]): (8) mm

polymyxin B
change in log10 CFU/g of thigh from 2 hour control [1, 8]: 3.91 log10 CFU/g of thigh
change in log10 CFU/g of thigh from 26 hour controls [1, 8]: −0.18 log10 CFU/g of thigh
change in log10 CFU/g of thigh from 2 hour control [1, 9]: 3.95 log10 CFU/g of thigh
change in log10 CFU/g of thigh from 26 hour controls [1, 9]: −0.13 log10 CFU/g of thigh
change in log10 CFU/g of thigh from 2 hour control [1, 10]: 3.38 log10 CFU/g of thigh
change in log10 CFU/g of thigh from 26 hour controls [1, 10]: −0.70 log10 CFU/g of thigh
change in log10 CFU/g of thigh from 2 hour control ([1]; PMB 1 mg/kg (total 2) BID/SC): 0.49 log10 CFU/g of thigh
change in log10 CFU/g of thigh from 26 hour controls ([1]; PMB 1 mg/kg (total 2) BID/SC): −3.60 log10 CFU/g of thigh
reductions in CFUs from the 26 hour infection controls ([1]; Polymyxin B as a single agent at 0.2 mg/kg): 0.70 log10 CFU/gram of thigh
reductions in CFUs from the 26 hour infection controls ([1]; Polymyxin B as a single agent at 1 mg/kg): 3.60 log10 CFU/gram of thigh
Average log10 CFU/g of thigh [1, 8]: 9.44 log10 CFU/g of thigh
Average log10 CFU/g of thigh [1, 9]: 9.49 log10 CFU/g of thigh
Average log10 CFU/g of thigh [1, 10]: 8.92 log10 CFU/g of thigh
Average log10 CFU/g of thigh ([1]; PMB 1 mg/kg (total 2) BID/SC): 6.02 log10 CFU/g of thigh
MIC (Pseudomonas aeruginosa): >1 µg/mL
MIC (Escherichia coli): 0.11 µg/mL
MIC (Klebsiella pneumoniae): 1 µg/mL
MIC [2]: 0.28 µg/mL

CC[C@H]1OC(=O)[C@H](C)[C@@H](O[C@H]2C[C@@](C)(OC)[C@@H](O)[C@H](C)O2)[C@H](C)[C@@H](O[C@@H]2O[C@H](C)C[C@H](N(C)C)[C@H]2O)[C@](C)(O)C[C@@H](C)C(=O)[C@H](C)[C@@H](O)[C@]1(C)O [Erythromycin]
zone of inhibition at 15 µg/disc (lptB1(R144H); [3]): 16 mm
zone of inhibition at 15 µg/disc (lptB1; [5]): 21 mm
zone of inhibition at 15 µg/disc (lptB1; [6]): 16 mm
zone of inhibition at 15 µg/disc (wild type; [3]): 8 mm
zone of inhibition at 15 µg/disc (lptB1(G33C); [3]): 11 mm

CO[C@@H]1[C@@H](OC(N)=O)[C@@H](O)[C@H](Oc2ccc3c(O)c(NC(=O)c4ccc(F)c(CC=C(C)C)c4)c(=O)oc3c2C)OC1(C)C [fluorobiocin, (3R,4S,5R,6R)-6-((3-(4-fluoro-3-(3-methylbut-2-en-1-yl)benzamido)-4-hydroxy-8-methyl-2-oxo-2H-chromen-7-yl)oxy)-5-hydroxy-3-methoxy-2,2-dimethyltetrahydro-2H-pyran-4-yl carbamate]
Kd (LptB; 19F NMR linewidth vs. log[LptB], nonlinear fit, [Fbn]=50 μM, 5 mM ADP): 18 µM
affinity for LptB in words (LptB; Solution NMR binding experiments): low micromolar binder

CO[C@H]1/C=C/O[C@@]2(C)Oc3c(C)c(O)c4c(O)c(c(/C=N/N5CCN(C)CC5)c(O)c4c3C2=O)NC(=O)/C(C)=C\C=C\[C@H](C)[C@H](O)[C@@H](C)[C@@H](O)[C@@H](C)[C@H](OC(C)=O)[C@@H]1C [Rifampicin]
Zone of inhibition, diameter of the zone of total growth inhibition (lptB1(R144H)): 24 mm
Zone of inhibition, diameter of the zone of total growth inhibition (lptB1): 17 mm
Zone of inhibition, diameter of the zone of partial growth inhibition (in parentheses) (wild type): 9 mm
Zone of inhibition, diameter of the zone of total growth inhibition (wild type): 8 mm
Zone of inhibition, diameter of the zone of total growth inhibition (lptB1(G33C); [7]): 9 mm
